From ChEMBL document CHEMBL4371002 (J Med Chem, 2018)
Square brackets hold non-standard residues; d marks the D form. Peptide text beside a SMILES is read from it. * marks the point of attachment. X3 = CC(C)[C@H](/C=C(\F)[C@H](C)N)C(=O)*; Dip = N[C@H](C(=O)O)C(c1ccccc1)c1ccccc1; Abu(4,4-F2) = N[C@@H](CC(F)F)C(=O)O; PhLac = O=C(O)[C@@H](O)Cc1ccccc1; Cha = N[C@@H](CC1CCCCC1)C(=O)O; Abu = CC[C@H](N)C(=O)O

How the values were obtained:
[1] = molecular target: Trypanothione reductase (Trypanosoma cruzi) (UniProt P28593)
[2] = molecular target: T1, 3-oxo-5-alpha-steroid 4-dehydrogenase 1 (Homo sapiens, UniProt P18405); type: cell-based, HEK293
T1 sequence (P18405 whole entry): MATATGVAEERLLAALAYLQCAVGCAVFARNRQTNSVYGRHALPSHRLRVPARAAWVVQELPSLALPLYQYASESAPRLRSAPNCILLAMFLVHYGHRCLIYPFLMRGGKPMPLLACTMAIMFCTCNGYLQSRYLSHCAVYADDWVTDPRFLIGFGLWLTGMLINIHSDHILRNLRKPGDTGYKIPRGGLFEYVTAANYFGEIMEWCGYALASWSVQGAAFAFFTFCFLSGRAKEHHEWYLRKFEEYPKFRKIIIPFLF

[3] = molecular target: T2, 3-oxo-5-alpha-steroid 4-dehydrogenase 2 (Homo sapiens, UniProt P31213); type: cell-based, HEK293
T2 sequence (P31213 whole entry): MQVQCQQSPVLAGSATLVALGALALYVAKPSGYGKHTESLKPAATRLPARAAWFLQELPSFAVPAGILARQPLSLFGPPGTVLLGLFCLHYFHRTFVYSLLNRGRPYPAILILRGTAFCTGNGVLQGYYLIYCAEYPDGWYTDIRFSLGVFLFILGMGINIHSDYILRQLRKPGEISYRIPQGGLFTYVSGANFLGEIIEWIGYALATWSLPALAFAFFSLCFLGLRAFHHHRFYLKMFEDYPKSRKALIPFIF

Steryl-sulfatase [4] = molecular target: T3, Steryl-sulfatase (Homo sapiens, UniProt P08842)
T3 sequence (P08842 whole entry): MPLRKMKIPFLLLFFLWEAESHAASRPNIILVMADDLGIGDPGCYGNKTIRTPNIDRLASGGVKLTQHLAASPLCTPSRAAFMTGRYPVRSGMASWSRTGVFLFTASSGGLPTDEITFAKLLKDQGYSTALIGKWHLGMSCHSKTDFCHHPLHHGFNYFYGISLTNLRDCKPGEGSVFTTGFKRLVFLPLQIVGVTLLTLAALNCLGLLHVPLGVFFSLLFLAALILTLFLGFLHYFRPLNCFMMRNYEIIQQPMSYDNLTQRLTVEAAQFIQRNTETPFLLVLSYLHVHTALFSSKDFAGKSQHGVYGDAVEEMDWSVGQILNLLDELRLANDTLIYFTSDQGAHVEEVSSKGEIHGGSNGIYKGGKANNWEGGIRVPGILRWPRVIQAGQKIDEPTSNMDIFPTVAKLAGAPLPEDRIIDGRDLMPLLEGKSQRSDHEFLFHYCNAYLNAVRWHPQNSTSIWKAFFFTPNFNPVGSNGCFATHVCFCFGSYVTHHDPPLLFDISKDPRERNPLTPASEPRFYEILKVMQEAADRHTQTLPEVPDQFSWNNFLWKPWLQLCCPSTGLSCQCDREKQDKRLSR

Steryl-sulfatase [5] = molecular target: T3, Steryl-sulfatase; remark: listed apart in the source
Carbonic anhydrase 2 = Carbonic anhydrase 2 (Bos taurus, UniProt P00921)
physchem [6] = test: physchem
[7] = molecular target: T4, 3-oxo-5-alpha-steroid 4-dehydrogenase 2 (Rattus norvegicus, UniProt P31214)
T4 sequence (P31214 whole entry): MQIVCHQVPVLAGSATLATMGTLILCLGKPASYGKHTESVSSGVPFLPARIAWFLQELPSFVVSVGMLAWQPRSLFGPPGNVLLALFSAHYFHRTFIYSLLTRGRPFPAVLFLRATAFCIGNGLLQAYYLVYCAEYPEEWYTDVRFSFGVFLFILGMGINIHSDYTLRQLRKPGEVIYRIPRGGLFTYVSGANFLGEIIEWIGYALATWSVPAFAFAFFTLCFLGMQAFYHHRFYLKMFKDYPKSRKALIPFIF

[8] = molecular target: T5, 3-oxo-5-alpha-steroid 4-dehydrogenase 1 (Rattus norvegicus, UniProt P24008)
T5 sequence (P24008 whole entry): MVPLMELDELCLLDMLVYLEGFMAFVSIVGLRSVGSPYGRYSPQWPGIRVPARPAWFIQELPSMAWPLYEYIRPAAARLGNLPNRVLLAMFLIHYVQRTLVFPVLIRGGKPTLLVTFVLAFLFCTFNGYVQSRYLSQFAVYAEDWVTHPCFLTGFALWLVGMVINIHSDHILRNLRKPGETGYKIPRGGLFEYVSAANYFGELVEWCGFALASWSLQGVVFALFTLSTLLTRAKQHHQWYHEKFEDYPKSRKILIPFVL

[9] = molecular target: T1, 3-oxo-5-alpha-steroid 4-dehydrogenase 1
[10] = molecular target: T1, 3-oxo-5-alpha-steroid 4-dehydrogenase 1; remark: listed apart in the source
physchem [11] = conditions: buffer, pH 7.4
[12] = molecular target: Delta-type opioid receptor (Homo sapiens, UniProt P41143)
in vitro = conditions: plasma
T47D = test: cells; type: functional, cell-based; conditions: Homo sapiens
[13] = molecular target: T2, 3-oxo-5-alpha-steroid 4-dehydrogenase 2
[14] = molecular target: Peptidyl-prolyl cis-trans isomerase FKBP1A (Homo sapiens, UniProt P62942); test: biochemical; type: cell-based
[15] = molecular target: T6, Parathyroid hormone/parathyroid hormone-related peptide receptor (Homo sapiens, UniProt Q03431); test: biochemical
T6 sequence (Q03431 whole entry): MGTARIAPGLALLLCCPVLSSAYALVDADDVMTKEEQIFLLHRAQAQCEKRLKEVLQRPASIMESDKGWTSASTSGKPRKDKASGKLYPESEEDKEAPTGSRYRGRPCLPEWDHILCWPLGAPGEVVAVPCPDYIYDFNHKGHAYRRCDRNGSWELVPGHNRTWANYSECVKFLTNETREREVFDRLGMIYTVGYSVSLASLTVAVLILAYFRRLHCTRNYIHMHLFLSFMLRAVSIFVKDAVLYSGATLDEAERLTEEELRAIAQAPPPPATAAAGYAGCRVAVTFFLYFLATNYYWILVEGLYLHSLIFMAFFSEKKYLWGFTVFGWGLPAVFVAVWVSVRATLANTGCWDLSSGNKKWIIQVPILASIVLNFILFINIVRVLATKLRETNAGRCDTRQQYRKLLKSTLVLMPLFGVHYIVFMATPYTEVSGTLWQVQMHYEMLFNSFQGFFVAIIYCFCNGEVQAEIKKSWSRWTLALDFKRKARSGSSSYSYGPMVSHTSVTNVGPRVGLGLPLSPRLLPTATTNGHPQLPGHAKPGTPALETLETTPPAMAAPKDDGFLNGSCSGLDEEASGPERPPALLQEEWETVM

[16] = molecular target: T6, Parathyroid hormone/parathyroid hormone-related peptide receptor
NS3 protease = NS3 protease (Hepacivirus C, UniProt C1KIQ2); parameters: species or system Hepacivirus hominis
Sequence of NS3 protease (C1KIQ2 whole entry): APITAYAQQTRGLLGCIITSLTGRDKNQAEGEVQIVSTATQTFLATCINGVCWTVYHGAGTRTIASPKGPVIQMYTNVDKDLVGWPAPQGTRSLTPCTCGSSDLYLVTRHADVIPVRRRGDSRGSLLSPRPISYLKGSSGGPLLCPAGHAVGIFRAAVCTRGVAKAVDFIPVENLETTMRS

Sequence of Delta-type opioid receptor (P41143 whole entry): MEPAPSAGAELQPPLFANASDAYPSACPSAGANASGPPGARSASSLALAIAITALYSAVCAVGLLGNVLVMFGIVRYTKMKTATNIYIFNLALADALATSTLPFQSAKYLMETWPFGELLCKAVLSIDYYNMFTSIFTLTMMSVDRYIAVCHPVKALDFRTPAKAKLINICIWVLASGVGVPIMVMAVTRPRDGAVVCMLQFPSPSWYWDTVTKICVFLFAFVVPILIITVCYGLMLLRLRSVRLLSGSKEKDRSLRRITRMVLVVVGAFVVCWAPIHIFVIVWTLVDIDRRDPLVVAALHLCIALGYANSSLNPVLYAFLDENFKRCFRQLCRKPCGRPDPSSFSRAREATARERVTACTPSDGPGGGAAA
Sequence of Carbonic anhydrase 2 (P00921 whole entry): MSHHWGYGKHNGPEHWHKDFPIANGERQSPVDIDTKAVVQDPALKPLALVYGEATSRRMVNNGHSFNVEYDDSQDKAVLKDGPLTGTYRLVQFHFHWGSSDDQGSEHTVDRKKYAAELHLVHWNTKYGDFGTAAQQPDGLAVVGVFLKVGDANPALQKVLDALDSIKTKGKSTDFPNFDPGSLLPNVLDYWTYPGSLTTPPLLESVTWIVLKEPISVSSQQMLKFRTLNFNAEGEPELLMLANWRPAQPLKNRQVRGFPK
Sequence of Trypanothione reductase (Trypanosoma cruzi) (P28593 whole entry, looked up): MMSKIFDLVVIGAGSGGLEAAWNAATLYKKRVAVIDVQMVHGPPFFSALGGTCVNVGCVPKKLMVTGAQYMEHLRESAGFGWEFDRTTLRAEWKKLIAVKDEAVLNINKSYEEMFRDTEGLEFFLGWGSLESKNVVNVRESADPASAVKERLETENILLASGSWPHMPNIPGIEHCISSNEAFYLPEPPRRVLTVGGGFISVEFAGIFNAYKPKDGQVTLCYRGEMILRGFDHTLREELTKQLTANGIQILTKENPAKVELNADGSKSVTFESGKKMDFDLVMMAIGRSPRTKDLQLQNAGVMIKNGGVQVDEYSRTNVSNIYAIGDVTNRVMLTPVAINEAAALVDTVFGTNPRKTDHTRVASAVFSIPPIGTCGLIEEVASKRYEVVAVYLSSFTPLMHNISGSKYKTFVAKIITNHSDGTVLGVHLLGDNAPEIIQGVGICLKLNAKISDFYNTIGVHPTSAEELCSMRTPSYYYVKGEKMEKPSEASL
Sequence of Peptidyl-prolyl cis-trans isomerase FKBP1A (P62942 whole entry): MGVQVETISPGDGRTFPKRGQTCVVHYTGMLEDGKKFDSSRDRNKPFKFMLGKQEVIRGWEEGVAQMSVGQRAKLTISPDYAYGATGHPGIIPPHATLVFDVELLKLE

## C[N+](C)(CCCNc1cc(F)ccc1Nc1ccc(C(F)(F)F)cc1)Cc1ccc(Cl)c(Cl)c1
[1]
  Kic: 24 µM

## CC(C)(C)NC(=O)[C@H]1CC[C@H]2[C@@H]3CC=C4C=C(F)CC[C@]4(C)[C@H]3CC[C@]12C
[2]
  IC50: 1300 nM
[3]
  IC50: 480 nM

## C[N+](C)(CCCNc1cc(F)ccc1Nc1ccc(S(F)(F)(F)(F)F)cc1)Cc1ccc(Cl)c(Cl)c1
[1]
  Kic: 28 µM

## C[C@]12CC[C@@H]3c4ccc(C(F)(F)S(=O)(=O)O)cc4CC[C@H]3[C@@H]1CCC2=O
Steryl-sulfatase [4]
  Ki: 73000 nM
Steryl-sulfatase [5]
  Ki: 147000 nM

## NS(=O)(=O)Cc1ccccc1 [PHENYLMETHANESULFONAMIDE]
Carbonic anhydrase 2
  IC50: 630 nM
Physchem [6]
  pKa: 10.5

## C[C@]12C=CC(=O)N[C@@H]1CC[C@@H]1[C@@H]2CC[C@]2(C)[C@@H](C(=O)NC(c3ccccc3)(C(F)(F)F)C(F)(F)F)CC[C@@H]12
[7]
  IC50: 34 nM
[8]
  IC50: 34 nM
[9]
  IC50: 20 nM
[10]
  IC50: 3.9 nM

## NS(=O)(=O)C(F)(F)c1ccccc1 [PHENYLDIFLUOROMETHANESULFONAMIDE]
Carbonic anhydrase 2
  IC50: 58 nM
Physchem [6]
  pKa: 7.7

## CC(C)C[C@H](NC(=O)[C@@H](/C=C/CNC(=O)CNC(=O)[C@@H](N)Cc1ccc(O)cc1)Cc1ccccc1)C(=O)O
Physchem [11]
  logD: -0.07
[12]
  Ki: 587 nM

## Cc1cn2c(C(=O)NCc3ccc(S(F)(F)(F)(F)F)cc3)c(C)nc2s1
In vitro
  fraction unbound: 0.003

## O=C1Nc2ccc(S(F)(F)(F)(F)F)cc2/C1=C/c1ccc[nH]1
T47D
  EC50: 490 nM

## C[C@]12C=CC(=O)N[C@@H]1CC[C@@H]1[C@@H]2CC[C@]2(C)[C@@H](C(=O)Nc3cc(C(F)(F)F)ccc3C(F)(F)F)CC[C@@H]12 [DUTASTERIDE]
[13]
  IC50: < 0.1 nM
[10]
  IC50: 4 nM

## CC(C)C[C@H](NC(=O)[C@H](Cc1ccccc1)OC(=O)CNC(=O)CNC(=O)[C@@H](N)Cc1ccc(O)cc1)C(=O)O (H-YGG[PhLac]L-OH)
[12]
  Ki: 34 nM

## C[C@]12CC[C@@H]3c4ccc(C(F)(F)S(N)(=O)=O)cc4CC[C@H]3[C@@H]1CCC2=O
Steryl-sulfatase [4]
  Ki: 82000 nM
Steryl-sulfatase [5]
  Ki: 28000 nM

## COc1cc(C(=O)C(=O)N2CCC[C@H]2C(=O)OCCCc2cccnc2)cc(OC)c1OC
[14]
  Ki: 4000 nM

## CC[C@H](C)[C@H](NC(=O)[C@H](CCC(=O)O)NC(=O)[C@H](CO)NC(=O)[C@@H](/C=C(\F)[C@H](C)N)C(C)C)C(=O)N[C@@H](CCC(N)=O)C(=O)N[C@@H](CC(C)C)C(=O)N[C@@H](CCSC)C(=O)N[C@@H](Cc1c[nH]cn1)C(=O)N[C@@H](CC(N)=O)C(=O)N[C@@H](CC(C)C)C(=O)NCC(=O)N[C@@H](CCCCN)C(=O)N[C@@H](Cc1c[nH]cn1)C(=O)N[C@@H](CC(C)C)C(=O)N[C@@H](CC(N)=O)C(=O)N[C@@H](CO)C(=O)N[C@@H](CCSC)C(=O)N[C@@H](CCC(=O)O)C(=O)N[C@@H](CCCN=C(N)N)C(=O)N[C@H](C(=O)N[C@@H](CCC(=O)O)C(=O)N[C@@H](Cc1c[nH]c2ccccc12)C(=O)N[C@@H](CC(C)C)C(=O)N[C@@H](CCCN=C(N)N)C(=O)N[C@@H](CCCCN)C(=O)N[C@@H](CCCCN)C(=O)N[C@@H](CC(C)C)C(=O)N[C@@H](CCC(N)=O)C(=O)N[C@@H](CC(=O)O)C(=O)N[C@H](C(=O)N[C@@H](Cc1c[nH]cn1)C(=O)N[C@@H](CC(N)=O)C(=O)N[C@@H](Cc1ccccc1)C(=O)N[C@H](C(=O)N[C@@H](C)C(N)=O)C(C)C)C(C)C)C(C)C (X3-SEIQLMHNLGKHLNSMERVEWLRKKLQDVHNFVA-NH2)
[15]
  Kd: 1.26 nM
[16]
  EC50: 4.4 nM

## CC(=O)N[C@@H](CC(=O)O)C(=O)N[C@@H](CCC(=O)O)C(=O)N[C@H](C(=O)N[C@@H](CCC(=O)O)C(=O)N[C@@H](CC1CCCCC1)C(=O)N[C@@H](CS)C(=O)O)C(c1ccccc1)c1ccccc1 (Ac-DE[Dip]E[Cha]C-OH)
NS3 protease
  Ki: 40 nM

## CC(C)C[C@H](NC(=O)[C@@H](/C=C(\F)CNC(=O)CNC(=O)[C@@H](N)Cc1ccc(O)cc1)Cc1ccccc1)C(=O)O
Physchem [11]
  logD: -0.11
[12]
  Ki: 43 nM

## CC(C)(C)c1ccc(Nc2ccc(F)cc2NCCC[N+](C)(C)Cc2ccc(Cl)c(Cl)c2)cc1
[1]
  Kic: 84 µM

## CC[C@H](NC(=O)[C@H](CC1CCCCC1)NC(=O)[C@H](CCC(=O)O)NC(=O)[C@@H](NC(=O)[C@H](CCC(=O)O)NC(=O)[C@H](CC(=O)O)NC(C)=O)C(c1ccccc1)c1ccccc1)C(=O)O (Ac-DE[Dip]E[Cha][Abu]-OH)
NS3 protease
  Ki: 700 nM

## Cc1cn2c(C(=O)NCc3ccc(C(F)(F)F)cc3)c(C)nc2s1
In vitro
  fraction unbound: 0.009

## CC(NC(=O)[C@H]1CC[C@H]2[C@@H]3CC[C@H]4NC(=O)C=C[C@]4(C)[C@H]3CC[C@]12C)(c1ccccc1)C(F)(F)F (some centres not stated)
[7]
  IC50: 15 nM
[8]
  IC50: 15 nM
[9]
  IC50: 16 nM
[10]
  IC50: 36 nM

## NS(=O)(=O)C(F)c1ccccc1 (configuration not stated)
Carbonic anhydrase 2
  IC50: 220 nM
Physchem [6]
  pKa: 8.8

## C[C@]12CC[C@@H]3c4ccc(CS(N)(=O)=O)cc4CC[C@H]3[C@@H]1CCC2=O
Steryl-sulfatase [4]
  Ki: 350000 nM

## O=C1Nc2cc(S(F)(F)(F)(F)F)ccc2/C1=C/c1ccc[nH]1
T47D
  EC50: 350 nM

## CC(C)C[C@H](NC(=O)[C@H](Cc1ccccc1)NC(=S)CNC(=O)CNC(=O)[C@@H](N)Cc1ccc(O)cc1)C(=O)O
[12]
  Ki: 47 nM

## CC(=O)N[C@@H](CC(=O)O)C(=O)N[C@@H](CCC(=O)O)C(=O)N[C@H](C(=O)N[C@@H](CCC(=O)O)C(=O)N[C@@H](CC1CCCCC1)C(=O)N[C@@H](CC(F)F)C(=O)O)C(c1ccccc1)c1ccccc1 (Ac-DE[Dip]E[Cha][Abu(4,4-F2)]-OH)
NS3 protease
  Ki: 30 nM
